Test results as given in US20260250290A1 (BRISTOL-MYERS SQUIBB COMPANY, priority 2023, published 2026).
Structures can show the parent of a compound that is named as a salt.

Target: T1, full length SGK1 (Homo sapiens, UniProt O00141)
T1 construct: 125 μM full length SGK1 (Life Technologies Part #PR7358A); purchased Life Technologies PR7358A
T1 sequence (O00141 1-431): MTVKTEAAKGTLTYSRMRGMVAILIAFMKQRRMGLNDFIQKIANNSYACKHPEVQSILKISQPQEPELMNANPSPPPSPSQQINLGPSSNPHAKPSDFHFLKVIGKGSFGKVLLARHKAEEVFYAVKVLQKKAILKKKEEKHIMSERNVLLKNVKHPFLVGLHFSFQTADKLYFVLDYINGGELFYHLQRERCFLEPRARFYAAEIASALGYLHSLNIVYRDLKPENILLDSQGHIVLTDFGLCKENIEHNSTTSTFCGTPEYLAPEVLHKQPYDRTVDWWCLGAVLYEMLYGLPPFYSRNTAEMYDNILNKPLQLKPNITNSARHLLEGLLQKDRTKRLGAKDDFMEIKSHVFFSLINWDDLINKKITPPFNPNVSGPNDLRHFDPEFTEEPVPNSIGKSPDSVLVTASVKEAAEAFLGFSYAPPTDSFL
Test: SGK1 inhibition Assay A (Caliper LabChip electrophoretic separation of fluorescent peptide substrate and phosphorylated product)
Type: biochemical
Settings: Assay A; 20 μM ATP, 40 min incubation; read-out: SGK1 IC50

Structure (SMILES)	IC50 [nM]
Nc1ncnn2c(-c3ccc(=O)n(CC(F)F)c3)cc(N3CCC[C@@H](NC(=O)c4sc(Cl)cc4OCC(=O)N4CCCC4)C3)c12 [Example 422, (R)-N-(1-(4-amino-7-(1-(2,2-difluoroethyl)-6-oxo-1,6-dihydropyridin-3-yl)pyrrolo[2,1-f][1,2,4]triazin-5-yl)piperidin-3-yl)-5-chloro-3-(2-oxo-2-(pyrrolidin-1-yl)ethoxy) thiophene-2-carboxamide]	15
COC(=O)N1CC=C(c2cc(N3CCC[C@@H](NC(=O)c4[nH]c5ccccc5c4OCCN(C)C)C3)c3c(N)ncnn23)C1 [Example 365, Methyl (R)-3-(4-amino-5-(3-(3-(2-(dimethylamino)ethoxy)-1H-indole-2-carboxamido)piperidin-1-yl)pyrrolo [2,1-f][1,2,4]triazin-7-yl)-2,5-dihydro-1H-pyrrole-1-carboxylate]	21
Nc1ncnn2c(-c3ccc(-n4cncn4)nc3)cc(N3CCC[C@@H](NC(=O)c4ccc(Cl)s4)C3)c12 [Example 251, (R)-N-(1-(7-(6-(1H-1,2,4-triazol-1-yl)pyridin-3-yl)-4-aminopyrrolo[2,1-f][1,2,4]triazin-5-yl)piperidin-3-yl)-5-chlorothiophene-2-carboxamide, TFA]	1
CS(=O)(=O)N1C=C(c2cc(N3CCC[C@@H](NC(=O)c4ccnc(F)c4)C3)c3c(N)ncnn23)CC1 [Example 118, (R)—N-(1-(4-amino-7-(1-(methylsulfonyl)-4,5-dihydro-1H-pyrrol-3-yl)pyrrolo[2,1-f][1,2,4]triazin-5-yl)piperidin-3-yl)-2-fluoroisonicotinamide, TFA]	130
Nc1ncnn2c(C3=CCN(C(=O)c4ccncc4)C3)cc(N3CCC[C@@H](NC(=O)c4ccc(Cl)s4)C3)c12 [Example 902, (R)-N-(1-(4-amino-7-(1-isonicotinoy1-2,5-dihydro-1H-pyrrol-3-yl)pyrrolo[2,1-f][1,2,4]triazin-5-yl)piperidin-3-y1)-5-chlorothiophene-2-carboxamide]	28
Cc1nc(OCCN(C)C)c(C(=O)N[C@@H]2CCCN(c3cc(-c4ccc(C#N)nc4)n4ncnc(N)c34)C2)s1 [Example 354, (R)-N-(1-(4-amino-7-(6-cyanopyridin-3-yl)pyrrolo[2,1-f][1,2,4]triazin-5-yl)piperidin-3-yl)-4-(2-(dimethylamino)ethoxy)-2-methylthiazole-5-carboxamide]	6
CN(C)CCOc1cc(C(F)F)sc1C(=O)N[C@@H]1CCCN(c2cc(-c3ccnc(N)c3)n3ncnc(N)c23)C1 [Example 304, (R)-N-(1-(4-amino-7-(2-aminopyridin-4-yl)pyrrolo [2,1-f][1,2,4]triazin-5-yl)piperidin-3-yl)-5-(difluoromethyl)-3-(2-(dimethylamino)ethoxy) thiophene-2-carboxamide]	3
CS(=O)(=O)c1ccc(-c2cc(N3CCC[C@@H](NC(=O)c4cnn(CC(F)(F)F)c4)C3)c3c(N)ncnn23)cc1 [Example 76, (R)-N-(1-(4-amino-7-(4-(methylsulfonyl)phenyl)pyrrolo[2,1-f][1,2,4]triazin-5-yl)piperidin-3-yl)-1-(2,2,2-trifluoroethyl)-1H-pyrazole-4-carboxamide]	53
Nc1ncnn2c(-c3cncnc3)cc(N3CCC[C@@H](NC(=O)c4sc5ccc(F)cc5c4OC4CCNCC4)C3)c12 [Example 688, (R)—N-(1-(4-amino-7-(pyrimidin-5-yl)pyrrolo[2,1-f][1,2,4]triazin-5-yl)piperidin-3-yl)-5-fluoro-3-(piperidin-4-yloxy)benzo[b]thiophene-2-carboxamide]	161
Cc1cc(Br)c(C(=O)N[C@@H]2CCCN(c3cc(-c4ccnc(F)c4)n4ncnc(N)c34)C2)s1 [Example 170, (R)—N-(1-(4-amino-7-(2-fluoropyridin-4-yl)pyrrolo[2,1-f][1,2,4]triazin-5-yl)piperidin-3-yl)-3-bromo-5-methylthiophene-2-carboxamide]	6
CN1CCC(c2cc(C(F)F)sc2C(=O)N[C@@H]2CCCN(c3cc(-c4ccc(C#N)nc4)n4ncnc(N)c34)C2)CC1 [Example 396, (R)-N-(1-(4-amino-7-(6-cyanopyridin-3-yl)pyrrolo[2,1-f][1,2,4]triazin-5-yl)piperidin-3-yl)-5-(difluoromethyl)-3-(1-methylpiperidin-4-yl)thiophene-2-carboxamide]	146
COC(=O)N1CC=C(c2cc(N3CCC[C@@H](NC(=O)c4sc5ccccc5c4OC4CCN(CCO)CC4)C3)c3c(N)ncnn23)C1 [Example 660, methyl (R)-3-(4-amino-5-(3-(3-((1-(2-hydroxyethyl)piperidin-4-yl)oxy)benzo[b]thiophene-2-carboxamido)piperidin-1-yl)pyrrolo[2,1-f][1,2,4]triazin-7-yl)-2,5-dihydro-1H-pyrrole-1-carboxylate]	2
CCc1cccc(C(=O)N[C@@H]2CCCN(c3cc(-c4ccc(S(C)(=O)=O)cc4)n4ncnc(N)c34)C2)c1 [Example 79, (R)-N-(1-(4-amino-7-(4-(methylsulfonyl)phenyl)pyrrolo[2,1-f][1,2,4]triazin-5-yl)piperidin-3-yl)-3-ethylbenzamide, TFA]	26

The next lines start with the values.

IC50 [nM]	Structure (SMILES)
21	COC(=O)N1CC=C(c2cc(N3CCC[C@@H](NC(=O)c4sc(Cl)cc4OC4CN(CC(F)F)C4)C3)c3c(N)ncnn23)C1 [Example 385, Methyl (R)-3-(4-amino-5-(3-(5-chloro-3-((1-(2,2-difluoroethyl)azetidin-3-yl)oxy)thiophene-2-carboxamido)piperidin-1-yl)pyrrolo[2,1-f][1,2,4]triazin-7-yl)-2,5-dihydro-1H-pyrrole-1-carboxylate]
246	CC(=O)N1CC=C(c2cc(N3CCC[C@@H](NC(=O)c4cc(C)on4)C3)c3c(N)ncnn23)C1 [Example 455, (R)-N-(1-(7-(1-acetyl-2,5-dihydro-1H-pyrrol-3-yl)-4-aminopyrrolo[2,1-f][1,2,4]triazin-5-yl)piperidin-3-yl)-5-methylisoxazole-3-]
5	CC(=O)N1CC=C(c2cc(N3CCC[C@@H](NC(=O)c4csc(Cl)c4)C3)c3c(N)ncnn23)C1 [Example 719]
8	CC(=O)N1CC=C(c2cc(N3CCCC(NC(=O)c4sc(Cl)cc4OC4CC5CC4CN5C)C3)c3c(N)ncnn23)C1 (single isomer, unassigned) [Example 608]
5	CN(C)CCOc1cc(Cl)sc1C(=O)N[C@@H]1CCCN(c2cc(C3=CCN(C(=O)C4CC4)C3)n3ncnc(N)c23)C1 [Example 177, (R)-N-(1-(4-amino-7-(1-(cyclopropanecarbonyl)-2,5-dihydro-1H-pyrrol-3-yl)pyrrolo[2,1-f][1,2,4]triazin-5-yl)piperidin-3-yl)-5-chloro-3-(2-(dimethylamino)ethoxy) thiophene-2-carboxamide, 2 TFA]
4	CC(=O)N1CC=C(c2cc(N3CCC[C@@H](NC(=O)c4sc(Cl)cc4OCC4CCCN4C)C3)c3c(N)ncnn23)C1 (single isomer, unassigned) [Example 391]
784	CC(=O)N1CC=C(c2cc(N3CCC[C@@H](NC(=O)c4ccc5n(c4=O)CCC5)C3)c3c(N)ncnn23)C1 [Example 746, (R)-N-(1-(7-(1-acetyl-2,5-dihydro-1H-pyrrol-3-yl)-4-aminopyrrolo[2,1-f][1,2,4]triazin-5-yl)piperidin-3-yl)-5-oxo-1,2,3,5-tetrahydroindolizine-6-carboxamide]
